According to PubChem BioAssay AID296 (DTP/NCI, 2004):
Where “and” joins values, the source holds several entries; their conditions need not be identical. Identical values can stand only once. Results filed as inconclusive are left out.

System: MX-1 breast xenograft, nude mice, tumor weight T/C
Experiment: NCI In Vivo Anticancer Drug Screen. Data for tumor model Human Mammary Carcinoma MX-1 Xenograft (intrarenal inoculation) in NU/NU Swiss (nude) mice
Settings: endpoint: mean tumor weight change, higher = larger tumour
Procedure, shortened: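 Activity is given as a ratio, with each measurement in the compound-treated arm divided by the matching measurement in vehicle-dosed controls. Tumour size or survival serves as the measured parameter.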

[1] = dose: 100.0 mg/kg/injection, schedule: Q04DX003 (sc), vehicle: saline with Tween-80
[2] = dose: 600.0 mg/kg/injection, schedule: Q04DX003 (sc), vehicle: saline with Tween-80
[3] = dose: 1200.0 mg/kg/injection, schedule: Q04DX003 (sc), vehicle: saline with Tween-80
[4] = dose: 300.0 mg/kg/injection, schedule: Q04DX003 (sc), vehicle: Klucel (hydroxypropylcellulose) (HPC)
[5] = dose: 50.0 mg/kg/injection, schedule: Q01DX010 (sc), vehicle: water
[6] = dose: 25.0 mg/kg/injection, schedule: Q01DX010 (sc), vehicle: saline
[7] = dose: 50.0 mg/kg/injection, schedule: Q01DX010 (sc), vehicle: saline
[8] = dose: 100.0 mg/kg/injection, schedule: Q01DX010 (sc), vehicle: saline
[9] = dose: 200.0 mg/kg/injection, schedule: Q01DX010 (sc), vehicle: saline with Tween-80
[10] = dose: 400.0 mg/kg/injection, schedule: Q01DX010 (sc), vehicle: saline with Tween-80

C[n+]1cccc(NC(=O)c2ccc(NC(=O)C34CCC(C(=O)Nc5ccc(C(=O)Nc6ccc[n+](C)c6)cc5)(CC3)CC4)cc2)c1
T/C (dose: 12.5 mg/kg/injection, schedule: Q04DX003 (sc), vehicle: saline with Tween-80): 118 % of control
T/C (dose: 25.0 mg/kg/injection, schedule: Q04DX003 (sc), vehicle: saline with Tween-80): 64 % of control
T/C (dose: 50.0 mg/kg/injection, schedule: Q04DX003 (sc), vehicle: saline with Tween-80): 35 % of control
T/C [1]: 27 % of control

C/C(=N\NC(N)=O)c1cccc(/C(C)=N/NC(N)=O)n1
T/C [2]: 98 % of control
T/C [3]: 74 % of control

c1ccc([Te][Te]c2ccccc2)cc1
T/C (dose: 75.0 mg/kg/injection, schedule: Q04DX003 (ip), vehicle: saline with Tween-80): 117 % of control
T/C (dose: 150.0 mg/kg/injection, schedule: Q04DX003 (ip), vehicle: saline with Tween-80): 80 % of control
T/C (dose: 300.0 mg/kg/injection, schedule: Q04DX003 (ip), vehicle: saline with Tween-80): 91 % of control

CC(=O)/C(=C\c1ccc(Cl)c(Cl)c1)C(=O)CCN(C)C
T/C (dose: 25.0 mg/kg/injection, schedule: Q04DX003 (ip), vehicle: saline): 166 % of control
T/C (dose: 50.0 mg/kg/injection, schedule: Q04DX003 (ip), vehicle: saline): 98 % of control
T/C (dose: 100.0 mg/kg/injection, schedule: Q04DX003 (ip), vehicle: saline): 83 % of control

O=NN(CCCl)C(=O)Oc1cc(Cl)c(Cl)cc1Cl
T/C [4]: 64 % of control
T/C (dose: 600.0 mg/kg/injection, schedule: Q04DX003 (sc), vehicle: Klucel (hydroxypropylcellulose) (HPC)): 35 % of control
T/C (dose: 1200.0 mg/kg/injection, schedule: Q04DX003 (sc), vehicle: Klucel (hydroxypropylcellulose) (HPC)): 21 % of control
T/C (dose: 2400.0 mg/kg/injection, schedule: Q04DX003 (sc), vehicle: Klucel (hydroxypropylcellulose) (HPC)): 33 % of control

CN(C)CCN1C(=O)c2cccc3cc(N)cc(c23)C1=O
T/C (dose: 16.0 mg/kg/injection, schedule: Q04DX003 (sc), vehicle: saline with Tween-80): 80 % of control
T/C (dose: 32.0 mg/kg/injection, schedule: Q04DX003 (sc), vehicle: saline with Tween-80): 78 % of control

CCN(C)N=Nc1ccc(C(N)=O)cc1
T/C (dose: 150.0 mg/kg/injection, schedule: Q04DX003 (sc), vehicle: Klucel (hydroxypropylcellulose) (HPC)): 38 % of control
T/C [4]: 21 % of control

CC1=C(C)C(=O)O[C@@H]([C@](C)(O)[C@]2(O)CC[C@@]3(O)[C@@H]4C[C@H]5O[C@]56[C@@H](O)C=CC(=O)[C@]6(C)[C@H]4CC[C@]23C)C1
T/C (dose: 16.0 mg/kg/injection, schedule: Q01DX010 (sc), vehicle: saline): 155 % of control
T/C (dose: 32.0 mg/kg/injection, schedule: Q01DX010 (sc), vehicle: saline): 95 % of control
T/C (dose: 64.0 mg/kg/injection, schedule: Q01DX010 (sc), vehicle: saline): 75 % of control

OCCN1CCN(CC/C=C2/c3ccccc3Sc3ccc(Cl)cc32)CC1
T/C (dose: 12.5 mg/kg/injection, schedule: Q04DX003 (sc), vehicle: saline): 115 % of control
T/C (dose: 25.0 mg/kg/injection, schedule: Q04DX003 (sc), vehicle: saline): 47 % of control
T/C (dose: 50.0 mg/kg/injection, schedule: Q04DX003 (sc), vehicle: saline): 44 % of control and 51 % of control

CN1N=C(N)c2cn(C3OC(COP(=O)(O)O)C(O)C3O)c3ncnc1c23 (stereo unspecified)
T/C (dose: 25.0 mg/kg/injection, schedule: Q01DX010 (sc), vehicle: water): -92 % of control and -76 % of control
T/C [5]: -91 % of control and -75 % of control

CC(/C=C/c1ccccc1)=Nc1ccccc1
T/C (dose: 150.0 mg/kg/injection, schedule: Q04DX003 (sc), vehicle: saline with Tween-80): 71 % of control
T/C (dose: 300.0 mg/kg/injection, schedule: Q04DX003 (sc), vehicle: saline with Tween-80): 83 % of control
T/C [2]: 69 % of control
T/C [3]: 93 % of control

CC1CN1P1(N2CC2C)=NP(N2CC2C)(N2CC2C)=NP(N2CC2C)(N2CC2C)=N1 (stereo unspecified)
T/C (dose: 18.75 mg/kg/injection, schedule: Q01DX010 (sc), vehicle: saline): 70 % of control
T/C [6]: 50 % of control
T/C (dose: 37.5 mg/kg/injection, schedule: Q01DX010 (sc), vehicle: saline): 41 % of control
T/C [7]: 26 % of control
T/C (dose: 75.0 mg/kg/injection, schedule: Q01DX010 (sc), vehicle: saline): 4 % of control
T/C [8]: -7 % of control
T/C (dose: 150.0 mg/kg/injection, schedule: Q04DX003 (sc), vehicle: saline): 13 % of control

CCN1/C(=C/C=C/C=C\C=C\c2sc3ccc4ccccc4c3[n+]2CC)Sc2ccc3ccccc3c21
T/C [1]: 104 % of control
T/C (dose: 200.0 mg/kg/injection, schedule: Q04DX003 (sc), vehicle: saline with Tween-80): 89 % of control
T/C (dose: 400.0 mg/kg/injection, schedule: Q04DX003 (sc), vehicle: saline with Tween-80): 101 % of control
T/C (dose: 800.0 mg/kg/injection, schedule: Q04DX003 (sc), vehicle: saline with Tween-80): 93 % of control

C=C1C(C)C2C(Cc3ccccc3)NC(=O)C23C(OC(C)=O)C=CC(C)(O)C(=O)C(C)C/C=C/C3C1O (stereo unspecified)
T/C (dose: 3.75 mg/kg/injection, schedule: Q04DX003 (sc), vehicle: Klucel (hydroxypropylcellulose) (HPC)): 344 % of control
T/C (dose: 7.5 mg/kg/injection, schedule: Q04DX003 (sc), vehicle: Klucel (hydroxypropylcellulose) (HPC)): 528 % of control
T/C (dose: 15.0 mg/kg/injection, schedule: Q04DX003 (sc), vehicle: Klucel (hydroxypropylcellulose) (HPC)): 497 % of control

CC(C)[NH-].CC(C)[NH-].O.O.[Cl][Pt+2][Cl]
T/C (dose: 3.12 mg/kg/injection, schedule: Q01DX010 (sc), vehicle: dextrose): 80 % of control and 97 % of control
T/C (dose: 6.25 mg/kg/injection, schedule: Q01DX010 (sc), vehicle: dextrose): 7 % of control and 22 % of control
T/C (dose: 25.0 mg/kg/injection, schedule: Q01DX010 (sc), vehicle: dextrose): -89 % of control

CC1(O)CC23CC(O)C4(O)C(CC(O)C4(C)C)C(C)(O)C2CCC1C3O (stereo unspecified)
T/C (dose: 0.25 mg/kg/injection, schedule: Q04DX003 (sc), vehicle: Klucel (hydroxypropylcellulose) (HPC)): 162 % of control

CC(=O)Nc1ccc(C(=O)C=O)cc1
T/C [9]: 55 % of control

O=CC=O
T/C (dose: 50.0 mg/kg/injection, schedule: Q01DX010 (sc), vehicle: saline with Tween-80): 109 % of control
T/C (dose: 100.0 mg/kg/injection, schedule: Q01DX010 (sc), vehicle: saline with Tween-80): 74 % of control
T/C [9]: 100 % of control
T/C [10]: 60 % of control

O=C(N/N=C\c1cc(Br)cc(Br)c1O)N/N=C/c1cc(Br)cc(Br)c1O
T/C [10]: 72 % of control
T/C (dose: 800.0 mg/kg/injection, schedule: Q01DX010 (sc), vehicle: saline with Tween-80): 61 % of control

COc1ccc2c(NCCCCCCNc3c4ccccc4nc4cc(OC)ccc34)c3ccccc3nc2c1
T/C (dose: 1.25 mg/kg/injection, schedule: Q01DX010 (sc), vehicle: lactic acid): 81 % of control
T/C (dose: 2.5 mg/kg/injection, schedule: Q01DX010 (sc), vehicle: lactic acid): 165 % of control
T/C (dose: 5.0 mg/kg/injection, schedule: Q01DX010 (sc), vehicle: lactic acid): 79 % of control
T/C (dose: 10.0 mg/kg/injection, schedule: Q01DX010 (sc), vehicle: lactic acid): 92 % of control

Cn1cnc([N+](=O)[O-])c1[Se]c1nc(N)nc2nc[nH]c12
T/C [5]: 71 % of control

O=C1c2c(O)ccc(O)c2C(=O)c2c(NCCNCCO)ccc(NCCNCCO)c21
T/C (dose: 0.5 mg/kg/injection, schedule: Q01DX010 (sc), vehicle: acid diluted with saline): 40 % of control
T/C (dose: 2.0 mg/kg/injection, schedule: Q01DX010 (sc), vehicle: acid diluted with saline): 62 % of control
T/C (dose: 2.5 mg/kg/injection, schedule: Q04DX003 (sc), vehicle: other): 59 % of control
T/C (dose: 2.5 mg/kg/injection, schedule: Q04DX003 (sc), vehicle: water): 28 % of control
T/C (dose: 5.0 mg/kg/injection, schedule: Q04DX003 (sc), vehicle: other): 34 % of control
T/C (dose: 5.0 mg/kg/injection, schedule: Q04DX003 (sc), vehicle: water): 9 % of control and 29 % of control
T/C (dose: 10.0 mg/kg/injection, schedule: Q04DX003 (sc), vehicle: other): 8 % of control
T/C (dose: 10.0 mg/kg/injection, schedule: Q04DX003 (sc), vehicle: water): 6 % of control

COc1cccc2c1C(=O)c1c(O)c3c(c(O)c1C2=O)C[C@@](O)(C(C)=O)C[C@@H]3OC1CC(N)C(O)C(C)O1 (stereo partly specified)
T/C (dose: 0.5 mg/kg/injection, schedule: Q01DX010 (sc), vehicle: saline): 161 % of control
T/C (dose: 4.0 mg/kg/injection, schedule: Q01DX010 (sc), vehicle: saline): 78 % of control and 89 % of control

CC1(C)OC(=O)N(CO)C1=O
T/C [6]: 45 % of control
T/C [7]: 31 % of control
T/C [8]: 48 % of control
T/C (dose: 200.0 mg/kg/injection, schedule: Q01DX010 (sc), vehicle: saline): 114 % of control
